Laboratory results: ChEMBL document CHEMBL2384934, “Discovery of 3-phenyl-1H-5-pyrazolylamine derivatives containing a urea pharmacophore as potent and efficacious inhibitors of FMS-like tyrosine kinase-3 (FLT3)” (Bioorg Med Chem, 2013)

How the values were obtained:
Aurora kinase A = target: T1, Aurora kinase A (Homo sapiens, UniProt O14965); assay: biochemical
T1 sequence (O14965 whole entry): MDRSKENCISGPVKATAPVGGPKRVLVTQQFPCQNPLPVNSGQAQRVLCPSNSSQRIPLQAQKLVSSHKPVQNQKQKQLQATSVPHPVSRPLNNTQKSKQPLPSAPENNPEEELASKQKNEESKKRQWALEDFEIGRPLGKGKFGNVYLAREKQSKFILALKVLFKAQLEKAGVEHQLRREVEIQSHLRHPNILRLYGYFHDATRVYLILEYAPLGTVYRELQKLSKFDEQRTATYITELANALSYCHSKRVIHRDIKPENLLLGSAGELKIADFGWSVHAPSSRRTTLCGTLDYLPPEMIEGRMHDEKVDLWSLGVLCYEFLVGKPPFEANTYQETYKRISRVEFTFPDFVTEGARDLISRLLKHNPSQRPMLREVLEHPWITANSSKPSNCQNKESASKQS
Description: Inhibition of recombinant GST tagged Aurora A kinase (123 to 401) (unknown origin) transfected in insect sf9 cells after 90 mins by wallac counting analysis

MOLM-13 = assay: cells; conditions: Homo sapiens, MOLM-13, 72 h
[1] = target: Vascular endothelial growth factor receptor 2 (Homo sapiens, UniProt P35968); assay: biochemical; type: cell-based, Sf9
Chain of Vascular endothelial growth factor receptor 2 (P35968 whole entry): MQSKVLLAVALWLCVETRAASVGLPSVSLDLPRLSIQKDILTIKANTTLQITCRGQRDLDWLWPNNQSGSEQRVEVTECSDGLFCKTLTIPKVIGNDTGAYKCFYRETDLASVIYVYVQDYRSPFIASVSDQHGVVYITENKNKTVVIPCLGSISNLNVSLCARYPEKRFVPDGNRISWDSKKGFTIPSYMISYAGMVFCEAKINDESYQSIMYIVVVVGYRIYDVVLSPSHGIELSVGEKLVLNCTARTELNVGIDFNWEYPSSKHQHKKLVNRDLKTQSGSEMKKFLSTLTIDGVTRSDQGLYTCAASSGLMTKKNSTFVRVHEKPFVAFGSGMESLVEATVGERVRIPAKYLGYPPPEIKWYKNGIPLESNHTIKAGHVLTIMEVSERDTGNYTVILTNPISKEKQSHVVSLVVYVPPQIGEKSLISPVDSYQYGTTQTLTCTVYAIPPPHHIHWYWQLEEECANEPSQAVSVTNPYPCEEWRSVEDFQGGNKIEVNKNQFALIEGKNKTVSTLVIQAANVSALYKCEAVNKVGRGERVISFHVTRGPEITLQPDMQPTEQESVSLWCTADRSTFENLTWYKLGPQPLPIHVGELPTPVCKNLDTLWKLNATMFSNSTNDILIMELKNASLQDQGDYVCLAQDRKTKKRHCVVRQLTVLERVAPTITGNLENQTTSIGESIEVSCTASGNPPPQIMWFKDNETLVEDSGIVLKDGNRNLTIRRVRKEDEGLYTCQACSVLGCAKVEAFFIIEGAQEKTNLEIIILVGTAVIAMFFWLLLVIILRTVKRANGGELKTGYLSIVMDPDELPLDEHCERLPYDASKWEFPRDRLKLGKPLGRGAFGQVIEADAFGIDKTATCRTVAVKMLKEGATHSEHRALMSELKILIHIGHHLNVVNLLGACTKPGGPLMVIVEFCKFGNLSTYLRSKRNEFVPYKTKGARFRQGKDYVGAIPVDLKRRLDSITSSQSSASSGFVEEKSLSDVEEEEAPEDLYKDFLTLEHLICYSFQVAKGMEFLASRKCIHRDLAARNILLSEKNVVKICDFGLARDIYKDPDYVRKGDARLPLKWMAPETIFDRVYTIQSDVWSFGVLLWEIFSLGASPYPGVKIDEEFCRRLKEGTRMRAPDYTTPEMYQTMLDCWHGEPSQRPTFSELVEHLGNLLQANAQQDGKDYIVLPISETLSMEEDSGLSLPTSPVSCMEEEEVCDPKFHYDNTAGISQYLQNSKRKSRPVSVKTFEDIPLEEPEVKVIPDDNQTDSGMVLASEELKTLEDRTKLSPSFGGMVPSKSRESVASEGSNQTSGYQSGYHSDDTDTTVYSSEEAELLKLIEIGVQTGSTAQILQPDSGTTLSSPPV
Description: Inhibition of recombinant GST tagged VEGFR2 (789 to 1356) (unknown origin) transfected in insect sf9 cells after 120 mins by wallac counting analysis

[2] = target: T2, Receptor-type tyrosine-protein kinase FLT3 (Homo sapiens, UniProt P36888); assay: biochemical; type: cell-based, Sf9
T2 sequence (P36888 whole entry): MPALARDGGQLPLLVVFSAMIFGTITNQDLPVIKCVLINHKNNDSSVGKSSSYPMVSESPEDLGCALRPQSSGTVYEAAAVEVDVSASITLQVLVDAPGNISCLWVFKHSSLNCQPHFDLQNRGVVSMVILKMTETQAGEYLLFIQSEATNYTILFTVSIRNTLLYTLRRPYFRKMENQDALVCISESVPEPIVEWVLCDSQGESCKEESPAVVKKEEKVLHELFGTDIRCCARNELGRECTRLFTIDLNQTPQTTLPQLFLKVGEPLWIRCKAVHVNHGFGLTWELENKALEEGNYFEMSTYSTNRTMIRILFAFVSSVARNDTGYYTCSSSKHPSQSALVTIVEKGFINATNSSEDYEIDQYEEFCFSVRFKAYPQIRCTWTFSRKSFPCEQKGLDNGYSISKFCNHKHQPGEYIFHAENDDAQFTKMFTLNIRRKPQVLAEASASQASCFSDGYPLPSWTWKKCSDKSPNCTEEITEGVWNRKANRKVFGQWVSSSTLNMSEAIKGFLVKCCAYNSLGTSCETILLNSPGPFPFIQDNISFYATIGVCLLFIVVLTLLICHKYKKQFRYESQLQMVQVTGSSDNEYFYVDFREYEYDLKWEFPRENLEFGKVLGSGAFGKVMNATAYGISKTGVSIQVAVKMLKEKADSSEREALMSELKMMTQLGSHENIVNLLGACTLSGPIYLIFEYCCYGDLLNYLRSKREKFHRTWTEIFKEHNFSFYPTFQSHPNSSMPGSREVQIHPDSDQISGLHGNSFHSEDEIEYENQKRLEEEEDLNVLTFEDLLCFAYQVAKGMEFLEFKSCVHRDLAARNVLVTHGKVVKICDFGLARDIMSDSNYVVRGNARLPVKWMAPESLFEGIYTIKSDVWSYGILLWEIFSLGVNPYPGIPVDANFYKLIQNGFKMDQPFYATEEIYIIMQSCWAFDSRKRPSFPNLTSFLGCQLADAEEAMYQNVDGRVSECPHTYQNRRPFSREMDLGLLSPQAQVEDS
Description: Inhibition of wild type GST tagged FLT3 kinase (567 to 993) (unknown origin) transfected in insect sf9 cells after 4 hrs by wallac counting analysis

[3] = Half life in Sprague-Dawley rat at 2 mg/kg, iv; type: ADME, organism-based; set-up: dose 2 mg/kg, route intravenous; conditions: in vivo
[4] = Volume of distribution at steady state in Sprague-Dawley rat at 2 mg/kg, iv; type: ADME, organism-based; set-up: dose 2 mg/kg, route intravenous; conditions: in vivo, read-out: Vdss
[5] = AUC (0 to infinity) in Sprague-Dawley rat at 2 mg/kg, iv; type: ADME, organism-based; set-up: time infinity, dose 2 mg/kg, route intravenous; conditions: plasma
[6] = Plasma clearance in Sprague-Dawley rat at 2 mg/kg, iv; type: ADME, organism-based; set-up: dose 2 mg/kg, route intravenous
[7] = Oral bioavailability in Sprague-Dawley rat at 10 mg/kg; type: ADME, organism-based; conditions: in vivo

Compound: CN1CCN(c2ccc(C(=O)Nc3cc(-c4ccc(NC(=O)N5CCCC5)cc4)n[nH]3)cc2)CC1
- IC50 (Aurora kinase A): > 1000 nM
- GI50 (MOLM-13): 37 nM
- IC50 [1]: > 1000 nM
- IC50 [2]: 70 nM

Compound: O=C(NCc1ccc(-c2cc(NC(=O)c3ccc(OCCN4CCOCC4)cc3)[nH]n2)cc1)Nc1ccccc1
- IC50 (Aurora kinase A): 760 nM
- GI50 (MOLM-13): 3 nM
- IC50 [1]: 54 nM
- IC50 [2]: 9 nM

Compound: Cc1cc(NC(=O)NCc2ccc(-c3cc(NC(=O)c4ccc(N5CCN(C)CC5)cc4)[nH]n3)cc2)no1
- IC50 (Aurora kinase A): 940 nM
- GI50 (MOLM-13): 2 nM
- IC50 [1]: 50 nM
- IC50 [2]: 13 nM

Compound: Cc1cnc(NC(=O)Nc2ccc(-c3cc(NC(=O)c4ccc(N5CCN(C)CC5)cc4)[nH]n3)cc2)s1
- IC50 (Aurora kinase A): 65 nM
- GI50 (MOLM-13): 9 nM
- IC50 [1]: 35 nM
- IC50 [2]: 50 nM

Compound: O=C(NCc1ccc(-c2cc(NC(=O)c3ccc(OCCN4CCOCC4)cc3)[nH]n2)cc1)Nc1ccc(Cl)cc1
- IC50 (Aurora kinase A): > 1000 nM
- GI50 (MOLM-13): 3 nM
- IC50 [1]: 71 nM
- IC50 [2]: 16 nM

Compound: CN1CCN(Cc2ccc(C(=O)Nc3cc(-c4ccc(CNC(=O)Nc5ccccc5)cc4)n[nH]3)cc2)CC1
- IC50 (Aurora kinase A): > 1000 nM
- GI50 (MOLM-13): 4 nM
- IC50 [1]: 82 nM
- IC50 [2]: 22 nM

Compound: Cc1nc(Nc2cc(-c3ccc(CNC(=O)Nc4cc(C)on4)cc3)n[nH]2)cc(N2CCN(C)CC2)n1
- IC50 (Aurora kinase A): 320 nM
- GI50 (MOLM-13): 9 nM
- IC50 [1]: 100 nM
- IC50 [2]: 21 nM

Compound: O=C(NCc1ccc(-c2cc(NC(=O)c3ccc(OCCN4CCOCC4)cc3)[nH]n2)cc1)Nc1ccc(F)cc1
- IC50 (Aurora kinase A): > 1000 nM
- GI50 (MOLM-13): 5 nM
- IC50 [1]: 130 nM
- IC50 [2]: 66 nM

Compound: Cc1cc(NC(=O)Nc2ccc(-c3cc(NC(=O)c4ccc(N5CCN(C)CC5)cc4)[nH]n3)cc2Cl)no1
- IC50 (Aurora kinase A): 600 nM
- GI50 (MOLM-13): 7 nM
- IC50 [1]: > 1000 nM
- IC50 [2]: 390 nM

Compound: CC(C)(C)c1cc(NC(=O)Nc2ccc(-c3cc(NC(=O)c4ccc(OCCN5CCCC5)cc4)[nH]n3)cc2)no1
- IC50 (Aurora kinase A): 47 nM
- GI50 (MOLM-13): 2 nM
- IC50 [1]: 12 nM
- IC50 [2]: 15 nM

Compound: O=C(NCc1ccc(-c2cc(NC(=O)c3ccc(OCCN4CCCC4)cc3)[nH]n2)cc1)OCc1ccccc1
- GI50 (MOLM-13): 2 nM

Compound: Cc1nc(Nc2cc(-c3ccc(NC(=O)Nc4ccccc4)cc3)n[nH]2)cc(N2CCN(C)CC2)n1
- IC50 (Aurora kinase A): 500 nM
- GI50 (MOLM-13): 160 nM
- IC50 [1]: 620 nM
- IC50 [2]: 280 nM

Compound: Cc1cc(NC(=O)Nc2ccc(-c3cc(NC(=O)c4ccc(N5CCN(C)CC5)cc4)[nH]n3)cc2C)no1
- IC50 (Aurora kinase A): 250 nM
- GI50 (MOLM-13): 1 nM
- IC50 [1]: 38 nM
- IC50 [2]: 9 nM

Compound: CN1CCN(c2ccc(C(=O)Nc3cc(-c4ccc(NC(=O)Nc5ccccn5)cc4)n[nH]3)cc2)CC1
- IC50 (Aurora kinase A): 610 nM
- GI50 (MOLM-13): 42 nM
- IC50 [1]: 73 nM
- IC50 [2]: 40 nM

Compound: CN1CCN(Cc2ccc(C(=O)Nc3cc(-c4ccc(NC(=O)Nc5cc(C(C)(C)C)on5)cc4)n[nH]3)cc2)CC1
- IC50 (Aurora kinase A): 160 nM
- GI50 (MOLM-13): 1 nM
- IC50 [1]: 12 nM
- IC50 [2]: 8 nM

Compound: CN1CCN(c2ccc(C(=O)Nc3cc(-c4ccc(NC(=O)NC5CC5)cc4)n[nH]3)cc2)CC1
- IC50 (Aurora kinase A): > 1000 nM
- GI50 (MOLM-13): 18 nM
- IC50 [1]: 300 nM
- IC50 [2]: 52 nM

Compound: Cc1cc(-c2cc(NC(=O)c3ccc(CN4CCN(C)CC4)cc3)[nH]n2)ccc1NC(=O)Nc1cc(C(C)(C)C)on1
- half-life [3]: 17 h
- Vd [4]: 10 L/kg
- AUC(0-inf) [5]: 3020 ng·h/mL
- clearance [6]: 11.3 mL/min/kg

Compound: Cc1nc(Nc2cc(-c3ccc(CNC(=O)Nc4cccc(Cl)c4)cc3)n[nH]2)cc(N2CCNCC2)n1
- IC50 (Aurora kinase A): 790 nM
- GI50 (MOLM-13): 18 nM
- IC50 [1]: 38 nM
- IC50 [2]: 26 nM

Compound: Cc1nc(Nc2cc(-c3ccc(CNC(=O)Nc4cc(C(C)(C)C)on4)cc3)n[nH]2)cc(N2CCN(C)CC2)n1
- IC50 (Aurora kinase A): 120 nM
- GI50 (MOLM-13): 3 nM
- IC50 [1]: 12 nM
- IC50 [2]: 35 nM

Compound: Cc1cc(NC(=O)Nc2ccc(-c3cc(NC(=O)c4ccc(N5CCN(C)CC5)cc4)[nH]n3)cc2)no1
- IC50 (Aurora kinase A): 120 nM
- GI50 (MOLM-13): 3 nM
- IC50 [1]: 31 nM
- IC50 [2]: 6 nM

Compound: CN1CCN(c2ccc(C(=O)Nc3cc(-c4cccc(NS(=O)(=O)c5ccccc5)c4)n[nH]3)cc2)CC1
- GI50 (MOLM-13): 21 nM
- IC50 [2]: 11 nM

Compound: CC(C)(C)c1cc(NC(=O)Nc2ccc(-c3cc(NC(=O)c4ccc(OCCN5CCOCC5)cc4)[nH]n3)cc2)no1
- IC50 (Aurora kinase A): 160 nM
- GI50 (MOLM-13): 2 nM
- IC50 [1]: 22 nM
- IC50 [2]: 19 nM

Compound: Cc1nc(Nc2cc(-c3ccc(CNC(=O)Nc4cc(C(C)(C)C)on4)cc3)n[nH]2)cc(N2CCN(CCO)CC2)n1
- IC50 (Aurora kinase A): 490 nM
- GI50 (MOLM-13): 5 nM
- IC50 [1]: 50 nM
- IC50 [2]: 95 nM

Compound: CN1CCN(c2ccc(C(=O)Nc3cc(-c4ccc(NC(=O)Nc5ccccc5)cc4)n[nH]3)cc2)CC1
- IC50 (Aurora kinase A): 330 nM
- GI50 (MOLM-13): 6 nM
- IC50 [1]: 26 nM
- IC50 [2]: 13 nM

Compound: Cc1nc(Nc2cc(-c3ccc(CNC(=O)Nc4cc(C(C)(C)C)on4)cc3)n[nH]2)cc(N2CCNCC2)n1
- IC50 (Aurora kinase A): 710 nM
- GI50 (MOLM-13): 8 nM
- IC50 [1]: 85 nM
- IC50 [2]: 26 nM

Compound: Cc1cc(-c2cc(NC(=O)c3ccc(OCCN4CCOCC4)cc3)[nH]n2)ccc1NC(=O)Nc1cc(C(C)(C)C)on1
- bioavailability [7]: 4%
- half-life [3]: 5.3 h
- IC50 (Aurora kinase A): 69 nM
- Vd [4]: 4.7 L/kg
- GI50 (MOLM-13): 8 nM
- IC50 [1]: 27 nM
- IC50 [2]: 20 nM
- AUC(0-inf) [5]: 2860 ng·h/mL
- clearance [6]: 13.9 mL/min/kg

Compound: CCNC(=O)Nc1ccc(-c2cc(NC(=O)c3ccc(N4CCN(C)CC4)cc3)[nH]n2)cc1
- IC50 (Aurora kinase A): > 1000 nM
- GI50 (MOLM-13): 33 nM
- IC50 [1]: 100 nM
- IC50 [2]: 94 nM

Compound: Cc1nc(Nc2cc(-c3ccc(CNC(=O)Nc4cc(C)on4)cc3)n[nH]2)cc(N2CCN(CCO)CC2)n1
- IC50 (Aurora kinase A): 98 nM
- GI50 (MOLM-13): 16 nM
- IC50 [1]: 120 nM
- IC50 [2]: 17 nM

Compound: CN1CCN(c2ccc(C(=O)Nc3cc(-c4ccc(NC(=O)Nc5cccnc5)cc4)n[nH]3)cc2)CC1
- IC50 (Aurora kinase A): 300 nM
- GI50 (MOLM-13): 22 nM
- IC50 [1]: 190 nM
- IC50 [2]: 74 nM

Compound: CN1CCN(c2ccc(C(=O)Nc3cc(-c4ccc(NC(=O)Nc5cc(C(C)(C)C)on5)cc4)n[nH]3)cc2)CC1
- IC50 (Aurora kinase A): 53 nM
- GI50 (MOLM-13): 5 nM
- IC50 [1]: 12 nM
- IC50 [2]: 30 nM

Compound: CN1CCN(Cc2ccc(C(=O)Nc3cc(-c4ccc(CNC(=O)Nc5cc(C(C)(C)C)on5)cc4)n[nH]3)cc2)CC1
- half-life [3]: 11 h
- IC50 (Aurora kinase A): > 1000 nM
- Vd [4]: 8 L/kg
- GI50 (MOLM-13): 3 nM
- IC50 [1]: 18 nM
- IC50 [2]: 4 nM
- AUC(0-inf) [5]: 2120 ng·h/mL
- clearance [6]: 17.2 mL/min/kg
